The results in this text go back to US12209084B2, “Serotonin 5-HT2B inhibitory compounds” (Zoetis Services LLC, priority 2021, dated 2025).

The experiment deals with T1, canine 5-HT2B receptor (Canis lupus familiaris, UniProt Q50DZ8).
T1 construct: expressed in transfected cells; host or cells: CHO-K1
The experiment is described as follows: Canine 5-HT2B (c5-HT2B) in-vitro assay (FLIPR calcium response, antagonist mode). It counts as cell-based. The conditions noted are these: CHO-K1 cells stably expressing the canine 5-HT2B receptor; intracellular calcium response (FLIPR Calcium 5); inhibition of EC80 concentration of serotonin after 10 minute antagonist incubation; read-out: Compound Receptor IC50 Affinities for c5-HT2B. As to the method: Canine 5-HT2B (c5-HT2B) In-Vitro Assay
CHO-K1 cells stably expressing the canine 5-HT2B receptor were seeded at 20,000 cells per well in 20 μl culture media (DMEM with GlutaMAX™ high glucose+5% dialyzed FBS+10 mM HEPES+1×MEM Non-Essential Amino Acids of a 384-well black plate with clear bottom for at least 18 hours at 37° C. and 5% CO2. The cell plate was loaded with 20 μl/well of the FLIPR© Calcium 5 Assay kit prepared in HBSS containing calcium and magnesium supplemented with 20 mM HEPES and 5 mM Probenecid at pH 7.4 and incubated at 37° C. and 5% CO2 for 30 minutes and then an additional 30 minutes at room temperature. The intracellular calcium response was measured using the FLIPR® Tetra instrument measuring the kinetic response of the calcium 5 dye at an excitation wavelength of 470-495 nm and emission wavelength of 515-575 nm at room temperature. The cells were initially challenged with a 5× concentration of the antagonist (10 μl/well) after an initial baseline recording and the calcium response was recorded for almost 2 minutes. After the completion of the initial antagonist challenge, the cell plate was incubated at room temperature in the FLIPR Tetra® instrument for 10 minutes. Finally, a second kinetic assay was performed after the 10 minute incubation at room temperature to measure the inhibitory response of the EC80 concentration of serotonin (15 μl/well) after an initial baseline recording. The IC50 concentration was determined for each antagonist tested.
In accordance with the in-vitro assay described above, the IC50 affinities for the c5-HT2B receptors for the compounds of the invention are provided in Table 1.

The IC50 is the point on the concentration scale where inhibition reaches its midpoint.

T1 sequence (Q50DZ8 1-434): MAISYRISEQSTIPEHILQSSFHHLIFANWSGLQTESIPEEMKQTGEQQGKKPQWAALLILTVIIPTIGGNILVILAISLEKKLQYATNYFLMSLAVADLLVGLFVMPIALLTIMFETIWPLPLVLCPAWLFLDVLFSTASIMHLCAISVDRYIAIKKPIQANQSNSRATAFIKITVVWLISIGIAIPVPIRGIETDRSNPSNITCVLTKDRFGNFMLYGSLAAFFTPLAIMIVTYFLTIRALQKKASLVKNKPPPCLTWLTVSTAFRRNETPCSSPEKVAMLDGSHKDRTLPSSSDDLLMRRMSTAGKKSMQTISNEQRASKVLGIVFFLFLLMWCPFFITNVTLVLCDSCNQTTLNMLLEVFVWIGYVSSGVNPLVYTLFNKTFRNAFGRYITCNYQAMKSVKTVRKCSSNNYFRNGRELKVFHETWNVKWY

For `O=C(N[C@@H]1C[C@H]2CC[C@@H](C1)N2Cc1ccccc1)c1ccc2cc[nH]c2c1` [Example 1, N-((1R,3s,5S)-8-benzyl-8-azabicyclo[3.2.1]octan-3-yl)-1H-indole-6-carboxamide], the IC50 came out at 0.41 nM.
For the molecule `O=C(N[C@@H]1C[C@H]2CC[C@@H](C1)N2Cc1ccccc1)c1ccc2cc[nH]c2n1` [Example 2, N-((1R,3s,5S)-8-benzyl-8-azabicyclo[3.2.1]octan-3-yl)-1H-pyrrolo[2,3-b]pyridine-6-carboxamide], the IC50 is 0.15 nM.
Then `O=C(N[C@@H]1C[C@H]2CC[C@@H](C1)N2Cc1ccc(Cl)cc1)c1ccc2cc[nH]c2n1` [Example 3, N-((1R,3s,5S)-8-(4-chlorobenzyl)-8-azabicyclo[3.2.1]octan-3-yl)-1H-pyrrolo[2,3-b]pyridine-6-carboxamide], with 1.53 nM.
For `O=C(N[C@@H]1C[C@H]2CC[C@@H](C1)N2Cc1ccc(F)cc1)c1ccc2cc[nH]c2c1` [Example 4, N-((1R,3s,5S)-8-(4-fluorobenzyl)-8-azabicyclo[3.2.1]octan-3-yl)-1H-indole-6-carboxamide], the IC50 was 0.12 nM.
Regarding `O=C(N[C@@H]1C[C@H]2CC[C@@H](C1)N2Cc1ccc(Cl)cc1)c1ccc2cc[nH]c2c1` [Example 5, N-((1R,3s,5S)-8-(4-chlorobenzyl)-8-azabicyclo[3.2.1]octan-3-yl)-1H-indole-6-carboxamide], the IC50 turned out to be 0.27 nM.
Turning to `O=C(N[C@@H]1C[C@H]2CC[C@@H](C1)N2Cc1ccc2[nH]ccc2c1)c1ccc2cc[nH]c2c1` [Example 6, N-((1R,3s,5S)-8-((1H-indol-5-yl)methyl)-8-azabicyclo[3.2.1]octan-3-yl)-1H-indole-6-carboxamide], the IC50 amounted to 0.31 nM.
The result for `O=C(N[C@@H]1C[C@H]2CC[C@@H](C1)N2Cc1cccs1)c1ccc2cc[nH]c2c1` [Example 7, N-((1R,3s,5S)-8-(thiophen-2-ylmethyl)-8-azabicyclo[3.2.1]octan-3-yl)-1H-indole-6-carboxamide] reads 1.3 nM.
`Cc1cc2ccc(C(=O)N[C@@H]3C[C@H]4CC[C@@H](C3)N4Cc3ccccc3)cc2[nH]1` [Example 8, N-((1R,3s,5S)-8-benzyl-8-azabicyclo[3.2.1]octan-3-yl)-2-methyl-1H-indole-6-carboxamide]: the IC50 came to 4 nM.
Regarding `O=C(N[C@@H]1C[C@H]2CC[C@@H](C1)N2Cc1ccccc1)c1ccc2c3c([nH]c2c1)CCCC3` [Example 9, N-((1R,3s,5S)-8-benzyl-8-azabicyclo[3.2.1]octan-3-yl)-2,3,4,9-tetrahydro-1H-carbazole-7-carboxamide], the IC50 is 112 nM.
For `O=C(N[C@@H]1C[C@H]2CC[C@@H](C1)N2Cc1ccccc1)c1ccc2cn[nH]c2c1` [Example 10, N-((1R,3s,5S)-8-benzyl-8-azabicyclo[3.2.1]octan-3-yl)-1H-indazole-6-carboxamide], the IC50 stood at 432 nM.
Turning to `O=C(N[C@@H]1C[C@H]2CC[C@@H](C1)N2Cc1ccc(C(F)(F)F)cc1)c1ccc2cc[nH]c2c1` [Example 11, N-((1R,3s,5S)-8-(4-(trifluoromethyl)benzyl)-8-azabicyclo[3.2.1]octan-3-yl)-1H-indole-6-carboxamide], the IC50 was 92.3 nM.
Then `O=C(N[C@@H]1C[C@H]2CC[C@@H](C1)N2Cc1ccccn1)c1ccc2cc[nH]c2c1` [Example 12, N-((1R,3s,5S)-8-(pyridin-2-ylmethyl)-8-azabicyclo[3.2.1]octan-3-yl)-1H-indole-6-carboxamide], with 54.3 nM; and `O=C(N[C@@H]1C[C@H]2CC[C@@H](C1)N2Cc1cccnc1)c1ccc2cc[nH]c2c1` [Example 13, N-((1R,3s,5S)-8-(pyridin-3-ylmethyl)-8-azabicyclo[3.2.1]octan-3-yl)-1H-indole-6-carboxamide], with 663 nM.
For `O=C(N[C@@H]1C[C@H]2CC[C@@H](C1)N2Cc1ccncc1)c1ccc2cc[nH]c2c1` [Example 14, N-((1R,3s,5S)-8-(pyridin-4-ylmethyl)-8-azabicyclo[3.2.1]octan-3-yl)-1H-indole-6-carboxamide], the IC50 turned out to be 2800 nM.
Then `O=C(N[C@@H]1C[C@H]2CC[C@@H](C1)N2Cc1cnccn1)c1ccc2cc[nH]c2c1` [Example 15, N-((1R,3s,5S)-8-(pyrazin-2-ylmethyl)-8-azabicyclo[3.2.1]octan-3-yl)-1H-indole-6-carboxamide], with 3700 nM.
Then `Cn1ccnc1CN1[C@@H]2CC[C@H]1C[C@H](NC(=O)c1ccc3cc[nH]c3c1)C2` [Example 16, N-((1R,3s,5S)-8-((1-methyl-1H-imidazol-2-yl)methyl)-8-azabicyclo[3.2.1]octan-3-yl)-1H-indole-6-carboxamide], with 8700 nM; and `O=C(N[C@@H]1C[C@H]2CC[C@@H](C1)N2c1ccccc1)c1ccc2cc[nH]c2c1` [Example 17, N-((1R,3s,5S)-8-phenyl-8-azabicyclo[3.2.1]octan-3-yl)-1H-indole-6-carboxamide], with 8280 nM.
In the case of `O=C(N[C@@H]1C[C@H]2CC[C@@H](C1)N2Cc1ccccc1)c1ccc2ccn(-c3ccncc3)c2c1` [Example 18, N-((1R,3s,5S)-8-benzyl-8-azabicyclo[3.2.1]octan-3-yl)-1-(pyridin-4-yl)-1H-indole-6-carboxamide], the IC50 was 538 nM.
`N#Cc1c[nH]c2cc(C(=O)N[C@@H]3C[C@H]4CC[C@@H](C3)N4Cc3ccccc3)ccc12` [Example 19, N-((1R,3s,5S)-8-benzyl-8-azabicyclo[3.2.1]octan-3-yl)-3-cyano-1H-indole-6-carboxamide]: the half-maximal inhibitory concentration (IC50) was 144 nM.
With `O=C(N[C@@H]1C[C@H]2CC[C@@H](C1)N2Cc1ccccc1)c1ccc2cc(C(F)(F)F)[nH]c2c1` [Example 20, N-((1R,3s,5S)-8-benzyl-8-azabicyclo[3.2.1]octan-3-yl)-2-(trifluoromethyl)-1H-indole-6-carboxamide], the IC50 is 21 nM.
Regarding `O=C(N[C@@H]1C[C@H]2CC[C@@H](C1)N2Cc1ccccc1)c1ccc2ccn(-c3ccc(C(F)(F)F)cc3)c2c1` [Example 21, N-((1R,3s,5S)-8-benzyl-8-azabicyclo[3.2.1]octan-3-yl)-1-(4-(trifluoromethyl)phenyl)-1H-indole-6-carboxamide], the IC50 came out at 1100 nM.
As for `O=C(N[C@@H]1C[C@H]2CC[C@@H](C1)N2Cc1ccccc1)c1ccc2ccn(-c3ccc(F)cc3)c2c1` [Example 22, N-((1R,3s,5S)-8-benzyl-8-azabicyclo[3.2.1]octan-3-yl)-1-(4-fluorophenyl)-1H-indole-6-carboxamide], the IC50 worked out at 32 nM.
Consider `O=C(N[C@@H]1C[C@H]2CC[C@@H](C1)N2Cc1ccccc1)c1ccc2ccn(-c3ccccc3)c2c1` [Example 23, N-((1R,3s,5S)-8-benzyl-8-azabicyclo[3.2.1]octan-3-yl)-1-phenyl-1H-indole-6-carboxamide], for which the IC50 came to 57 nM.
Then `O=C(N[C@@H]1C[C@H]2CC[C@@H](C1)N2Cc1ccccc1)c1ccc2ccoc2c1` [Example 24, N-((1R,3s,5S)-8-benzyl-8-azabicyclo[3.2.1]octan-3-yl)benzofuran-6-carboxamide], with 0.5 nM; and `O=C(N[C@@H]1C[C@H]2CC[C@@H](C1)N2Cc1ccns1)c1ccc2cc[nH]c2c1` [Example 25, N-((1R,3s,5S)-8-(isothiazol-5-ylmethyl)-8-azabicyclo[3.2.1]octan-3-yl)-1H-indole-6-carboxamide], with 1.4 nM.
On to `O=C(N[C@@H]1C[C@H]2CC[C@@H](C1)N2Cc1ccsn1)c1ccc2cc[nH]c2c1` [Example 26, N-((1R,3s,5S)-8-(isothiazol-3-ylmethyl)-8-azabicyclo[3.2.1]octan-3-yl)-1H-indole-6-carboxamide], for which the IC50 turned out to be 17.7 nM.
For `O=C(N[C@@H]1C[C@H]2CC[C@@H](C1)N2Cc1nccs1)c1ccc2cc[nH]c2c1` [Example 27, N-((1R,3s,5S)-8-(thiazol-2-ylmethyl)-8-azabicyclo[3.2.1]octan-3-yl)-1H-indole-6-carboxamide], the IC50 came out at 108 nM.
Turning to `Cc1csc(CN2[C@@H]3CC[C@H]2C[C@H](NC(=O)c2ccc4cc[nH]c4c2)C3)n1` [Example 28, N-((1R,3s,5S)-8-((4-methylthiazol-2-yl)methyl)-8-azabicyclo[3.2.1]octan-3-yl)-1H-indole-6-carboxamide], the IC50 worked out at 200 nM.
